Values joined by “and” are separate entries in the source; they are usually repeats but may differ in a detail not shown here. Equal entries are not always repeated. Where two headings read alike, the source gives them in different places.
Experiments:
[1] = Turbidity, derived count rate of scattered light; format: physicochemical; conditions: for Count Rate / kcps: derived count rate of scattered light at 633 nm, 173°, from zeta-potential measurement, 0.1 mg/mL in 1 mM KCl after 1 d at 1 mg/mL in PBS, turbidity / microscopic aggregation, mean of triplicate
How it was run: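 One-day room-temperature aggregation at 1 mg/mL in PBS (pH 7.4) preceded measurement; samples then went into 1 mM KCl. Triplicates per sample, two independent experiments averaged.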

[2] = format: physicochemical; design: key to Fibril / Fibril Formation / TEM 2cat / Fibril: 1 = fibrils present; 0 non-fibrillar structures; conditions: for Fibril / Fibril Formation: 1 mg/mL, uranyl acetate stain, qualitative
[3] = system: HIV-1 infection of TZM-bl cells; assay: HIV-1 infectivity enhancement assay, β-galactosidase luminescence; format: cell-based; conditions: for Rel-EFC: infection relative to EF-C (QCKIKQIINMWQ = 1); for Log10 Infection Rel EFC: log10 of infection relative to EF-C; for Log Infectivity: Log10 infection relative to EF-C, asymmetric std dev errors; for Log10 Infection Rel EF-C: HIV-1 infection of TZM-bl cells; for Log10 of Rel to EFC (Feb2021): Log10 of infection relative to EF-C; for Abs. Inf.: β-galactosidase luminescence; for Abs. Inf. / RLU s-1: absolute infection rate, peptide 1.3 µM on cells, virus preincubated 10 min with fibrils, read 3 days post infection, mean of triplicate; for Log10 Inf. rel. to EF-C: log10 of HIV-1 infection of TZM-bl cells relative to EF-C (EF-C = 0)
[4] = Log10 of derived count rate of scattered light (turbidity)
[5] = log10 of derived count rate of scattered light (turbidity)
[6] = turbidity, Log10 of derived count rate of scattered light, Figure 3A source data
[7] = Fig S10 panel D, fibril category by TEM
[8] = TEM, 1 = fibrils present, 0 = non-fibrillar
[9] = TEM, 1 = fibrils present, 0 = non-fibrillar structures
[10] = category: fibrils present or non-fibrillar
[11] = Fig. S7 panel A (plotted against β-sheet content), TZM-bl cells
[12] = Log10 of infection rate relative to EF-C, Figure 3A source data
[13] = infection rate relative to EF-C, log10, data of Figure 2D
[14] = infection rate relative to EF-C, log10, source data of Figure 2C
[15] = absolute HIV-1 infection signal, TZM-bl cells
[16] = Fig. S7 panel B (plotted against CR), rounded to two decimals, TZM-bl cells
[17] = logarithm of count rate in kcps
[18] = turbidity, log10 of derived count rate of scattered light
[19] = FigS12 panel A, fibril category by TEM
[20] = HIV-1 infection relative to EF-C, Fig 23 plot, panels A and B, mean of 3 values
[21] = HIV-1 infection relative to EF-C, Fig 23 plot, single data point, replicate 2
[22] = HIV-1 infection relative to EF-C, Fig 23 plot, single data point, replicate 3
[23] = absolute infection signal, HIV-1 on TZM-bl cells
[24] = n-fold infection vs virus only, relative to that of EF-C, 1.3 µM peptide

| Substance | Log10 Count Rate [1, 4] | Count Rate / kcps [1] | Log10 Count Rate [1, 5] | Log10 Count Rate [1, 6] | TEM 2cat [2, 7] | Fibril / Fibril Formation ([2]; TEM) | Fibril [2, 8] | Fibril [2, 9] | TEM 2cat [2, 10] | Rel-EFC ([3]; 1.3 µM peptide) | Log10 Infection Rel EFC ([3]; 1.3 µM peptide) | Log Infectivity [3, 11] | Log10 Infection Rel EF-C [3, 12] | Log10 Infection Rel EF-C [3, 13] | Log10 Infection Rel EF-C [3, 14] | Log10 of Rel to EFC (Feb2021) ([3]; all peptides of FigS16) | Fibril ([2]; Fig S10 panel E) | Log Infectivity [3, 16] | Log10 Count Rate [1, 18] | TEM 2cat ([2]; Fig S10 panel D) | further results |
| --- | --- | --- | --- | --- | --- | --- | --- | --- | --- | --- | --- | --- | --- | --- | --- | --- | --- | --- | --- | --- | --- |
| KIKIQIW | 2.161 | 145 kcps | 2.161 | 2.161 | 1 | 1 | 1 | 1 | 1 | 0,14 | -0,85 | -0.8533 | -0.85 | -0.8533 | -0.8533 | -0.85 |  |  |  |  | Abs. Inf. [3, 15]: 4280 |
| CEIEIQINMWQ | 3.196 | 1570 kcps | 3.196 | 3.196 | 1 | 1 | 1 | 1 | 1 | 0,22 | -0,66 | -0.6602 | -0.66 | -0.6602 | -0.6602 | -0.66 | 1 | -0.66 |  |  |  |
| RGDCKIKIQINM | 3.2102 | 1623 kcps | 3.2102 | 3.2102 | 1 | 1 | 1 | 1 | 1 | 0,24 | -0,63 | -0.6272 | -0.63 | -0.6272 | -0.6272 | -0.63 |  |  |  |  |  |
| KFKQFFINMWQ | 3.954 | 8996 kcps | 3.954 | 3.954 | 1 | 1 | 1 | 1 | 1 | 0,92 | -0,04 | -0.03603 | -0.04 | -0.03603 | -0.03603 | -0.04 |  |  |  |  | Abs. Inf. [3, 15]: 14953.33333 |
| KIKIQIC | 2.992 | 981 kcps | 2.992 | 2.992 | 1 | 1 | 1 | 1 | 1 | 0,61 | -0,22 | -0.2164 | -0.22 | -0.2164 | -0.2164 | -0.22 | 1 | -0.22 |  |  | Log10 Count Rate [1, 17]: 2.992; Zeta Count Rate ([1]; mean of the 3 replicates): 980.7 kcps; Zeta Count Rate ([1]; replicate 1): 1115.50 kcps; Zeta Count Rate ([1]; replicate 2): 1268.60 kcps; Zeta Count Rate ([1]; replicate 3): 557.90 kcps; Infection RLU/s, 1.3 µm abs ([3]; peptide 1.3 µm (so in the source), mean of the 3 replicates): 9447 RLU/s |
| CKAKAQANMWQ | 0.9526 | 9 kcps |  | 0.9526 |  | 0 | 0 | 0 |  | 0,04 | -1,36 | -1.359 | -1.36 | -1.359 | -1.359 |  | 0 | -1.36 | 0.9526 | 0 | Log10 Count Rate [1, 17]: 1 and 0.9528; TEM 2cat [2, 19]: 0; Fibril ([2]; FigS12 panel B, TEM): 0; Inf. rel. EF-C [3, 20]: 0.02574; Inf. rel. EF-C ([3]; HIV-1 infection relative to EF-C, Fig 23 plot, single data point, replicate 1): 0.02321; Inf. rel. EF-C [3, 21]: 0.03098; Inf. rel. EF-C [3, 22]: 0.02305; Abs. Inf. / RLU s-1 [3]: 600 RLU s-1; Abs. Inf. [3, 23]: 600; Log10 Inf. rel. to EF-C [3]: -1.359; Inf. rel. EF-C [3, 24]: 0.04 |
| KFKFQFN | 1.705 | 51 kcps |  | 1.705 |  | 1 | 1 | 1 |  | 0,02 | -1,74 | -1.744 | -1.74 | -1.744 | -1.744 |  |  |  | 1.705 | 1 | Log10 Count Rate [1, 17]: 1.7; TEM 2cat [2, 19]: 1; Fibril ([2]; FigS12 panel B, TEM): 1; Inf. rel. EF-C [3, 20]: 0.01184; Inf. rel. EF-C [3, 21]: 0.01096; Inf. rel. EF-C [3, 22]: 0.005798; Abs. Inf. / RLU s-1 [3]: 270 RLU s-1; Abs. Inf. [3, 23]: 270; Log10 Inf. rel. to EF-C [3]: -1.744; Inf. rel. EF-C [3, 24]: 0.02 |
| KIEIQINM | 2.439 | 275 kcps | 2.439 | 2.439 | 1 | 1 | 1 | 1 |  | 0,03 | -1,46 | -1.458 | -1.46 | -1.458 | -1.458 |  |  |  |  |  | TEM 2cat [2, 19]: 1; Fibril ([2]; FigS12 panel B, TEM): 1 |
| KIKIKIKIWW | 3.975 | 9436 kcps | 3.975 | 3.975 | 0 | 0 | 0 | 0 | 0 | 0,37 | -0,43 | -0.4266 | -0.43 | -0.4266 | -0.4266 | -0.43 | 0 | -0.43 |  |  | Zeta Count Rate ([1]; peptides with TEM 2cat 0): 9436 kcp; Log10 of Rel to EFC (Feb2021) ([3]; second listing, peptides with TEM 2cat 0): -0.43 |
| KFKFQFFF | 3.483 | 3039 kcps | 3.483 | 3.483 | 1 | 1 | 1 | 1 | 1 | 0,4 | -0,39 | -0.3936 | -0.39 | -0.3936 | -0.3936 | -0.39 | 1 | -0.39 |  |  |  |
| QCKFKQFFNM | 4.016 | 10385 kcps |  | 4.016 |  | 1 | 1 | 1 | 1 | 0,43 | -0,37 | -0.3706 | -0.37 | -0.3706 | -0.3706 | -0.37 | 1 | -0.37 | 4.016 | 1 | Abs. Inf. [3, 23]: 5847; Log10 Inf. rel. to EF-C [3]: -0.3706 |
| QCKFKQFF | 2.353 | 225 kcps |  | 2.353 |  | 1 | 1 | 1 |  | 0,01 | -1,91 | -1.907 | -1.91 | -1.907 | -1.907 |  |  |  | 2.353 | 1 | TEM 2cat [2, 19]: 1; Fibril ([2]; FigS12 panel B, TEM): 1; Abs. Inf. [3, 23]: 170; Log10 Inf. rel. to EF-C [3]: -1.907 |

Reference: publication PMC10447463, “Data-mining unveils structure–property–activity correlation of viral infectivity enhancing self-assembling peptides” (Nature Communications, 2023)
